US11820745B2, “PKC-activating compounds for the treatment of neurodegenerative diseases” (Synaptogenix, Inc., priority 2008, dated 2023)
pEC50: −log10 of the molar value. Read-outs that look alike come from different tables or passages of the source. One block for each compound: values may come before it.

Legend:
[1] = tested on: PKC; assay: PKC activity time course in rat H19-7/IGF-IR hippocampal cells; type: cell-based
Method: (§1) Cell culture. Rat hippocampal H19-71GF-IR cells (ATCC, Manassas, Va.) were plated onto poly-L-lysine coated plates and grown at 35° C. in DMEM/10% FCS for several days until about 50% coverage was obtained. The cells were then induced to differentiate into a neuronal phenotype by replacing the medium with 5 ml N2 medium containing 10 ng/ml basic fibroblast growth factor at 39° C. and grown in T-75 flasks at 37° C. Human SH-SY5Y neuroblastoma cells (ATCC) were cultured in 45% F12K/45% MEM/10% FCS. Mouse N2A neuroblastoma cells were cultured in DMEM/10% FCS without glutamine. Rat hippocampal neurons from 18-day-old embryonic
(§2) Protein kinase C assay. Rat hippocampal cells were cultured and scraped in 0.2 ml homogenization buffer (20 triM Tris-HCl, pH 7.4, 50 mM NaF, 1 μg/ml leupeptin, and 0.1 mM PMSF) and homogenized by sonication in a Marsonix micro-probe sonicator (5 see, 10W). To measure PKC, 10 ul of cell homogenate or purified. PKC isozyme (purchased from Calbiochem) was incubated for 15 min at 37° C. in the presence of 10 μM histones, 4.89 mM CaCl2, 1.2 μg/μl phosphatidyl-L-serine, 0.18 μg/μl 1,2-dioctanoyl-sn-glycerol, 10 mM MgCl2, 20 mM HEPES (pH 7.4), 0.8 mM EDTA, 4 mM EGTA, 4% glycerol, 8 μg/ml aprotinin, 8 μg/ml leupeptin, and 2 mM benzamidine. 0.5 μCi [^γ-32P]ATP was added and ^32P-phosphoprotein formation was measured by adsorption onto phosphocellulose as described previously. Nelson and Alkon, J. Neurochemistry. 1995; 65: 2350-57. For measurements of activation by BR-101 (DCP-LA) and similar compounds, PKC activity was measured in the absence of diacylglycerol and phosphatidyl serine, as described by Kanno et al., and PKC δ, ε, η, and μ were measured in the absence of added EGTA and CaCl2, as described by Kanno et al., J. Lipid Res. 2006; 47: 1146-50. Low concentrations of Ca^2+ are used because high Ca^2+ interacts with the PKC phosphatidylserine binding site and prevents activation. For measurements of bryostatin activation, 1,2-diacylglycerol was omitted unless otherwise stated.

[2] = tested on: PKC; settings: read-out: affinity for PKC, ECS50; cited from earlier work
[3] = molecular target: T1, PKCε (Homo sapiens, UniProt Q02156); assay: Protein kinase C assay, purified/recombinant PKC epsilon (32P incorporation into histones); type: biochemical; settings: for activation of purified PKCε / concentration needed to activate PKC, times lower than for BR-101 (DCP-LA): FIG. 3
T1 construct: purchased Calbiochem
T1 sequence (Q02156 1-737): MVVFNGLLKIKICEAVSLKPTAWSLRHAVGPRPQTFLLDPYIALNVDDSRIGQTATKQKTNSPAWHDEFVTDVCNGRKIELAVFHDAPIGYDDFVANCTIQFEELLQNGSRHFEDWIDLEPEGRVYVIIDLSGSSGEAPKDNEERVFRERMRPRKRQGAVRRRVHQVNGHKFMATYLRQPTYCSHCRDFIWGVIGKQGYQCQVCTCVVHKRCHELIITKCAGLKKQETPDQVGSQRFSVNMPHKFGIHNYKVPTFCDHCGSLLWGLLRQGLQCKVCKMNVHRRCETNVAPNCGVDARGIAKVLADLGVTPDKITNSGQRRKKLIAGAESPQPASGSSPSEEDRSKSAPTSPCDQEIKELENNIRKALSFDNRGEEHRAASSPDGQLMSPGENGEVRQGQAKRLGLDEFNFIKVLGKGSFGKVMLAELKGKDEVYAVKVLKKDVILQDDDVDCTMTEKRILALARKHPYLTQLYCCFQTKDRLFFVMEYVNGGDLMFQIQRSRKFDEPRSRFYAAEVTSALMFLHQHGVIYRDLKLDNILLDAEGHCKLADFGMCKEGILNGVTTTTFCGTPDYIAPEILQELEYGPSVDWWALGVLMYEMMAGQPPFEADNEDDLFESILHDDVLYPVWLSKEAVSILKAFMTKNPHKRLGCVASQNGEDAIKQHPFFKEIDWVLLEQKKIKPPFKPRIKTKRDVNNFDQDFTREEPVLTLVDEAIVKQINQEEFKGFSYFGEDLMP
Method: Protein kinase C assay. Recombinant PKC (1 ng of alpha or epsilon isofonn) was mixed with the BR-101 (UCP-LA) in the presence of 10 micromoiar histones, 5 mM CaCl2, 1.2 μg/μl phosphatidyl-L-serine, 0.18 μg/μl 1,2-dioctanoyl-sn-glycerol (DAG), […], […] (pH 7.4), 0.8 tnIVI EDTA, 4 mM EGTA, 4% glycerol, 8 μg/ml aprotinin, 8 μ/ml leupeptin, and 2 mM benzamidine. 0.5 micro Ci [^y32P]ATP was added. The incubation mixture was incubated for 15 min at 37 degrees in a total volume of 10 microliters. The reaction was stopped by spotting the reaction mixtures on 1×2 cm strips of cellulose phosphate paper (Whatman P81) and immediately washing twice for 1 hr in 0.5% H3PO4. The cellulose phosphate strips were counted in a scintillation counter. In some experiments, phosphatidylserine, diacylglycerol, and/or calcium were removed.
as §2
To determine their PKC isozyme specificity, the new compounds were preincubated with purified PKC for five minutes and the PKC activity was measured radiometrically.

[4] = tested on: a-secretase; settings: human fibroblasts, cited from earlier work
[5] = tested on: TACE; assay: TACE assay in N2a mouse neuroblastoma cells; type: cell-based; settings: FIG. 9a
Method: (§3) TACE Assay. TACE was measured by incubating 5 μl cell homogenate, 3 μl buffer (50 mM Tris-HCl 7.4 plus 25 mM NaCl plus 4% glycerol), and 1 of 100 μM TACE substrate IV (Aβz-LAQAVRSSSR-DPa) (Calbiochem) for 20 min at 37° in 1.5-ml polypropylene centrifuge tubes (Jin et al., Anal Biochem. 2002; 302: 269-75). The reaction was stopped by cooling to 4° C. The samples were diluted to 1 ml and the fluorescence was rapidly measured (ex=320 nm, em=420 nm) in a Spex Fluorolog 2 spectrofluorometer.

[6] = tested on: SH-SY5Y neuroblastoma cells; assay: Cell survival and proliferation (alamar Blue, CyQuant) in SH-SY5Y neuroblastoma cells; type: cell-based, human; settings: alamar Blue; FIG. 11a
Method: (§4) AB Measurement and Cell Viability Assay. Aβ was measured using an Aβ1-42 human fluorimetric ELISA kit (Invitrogen) according to the manufacturer's instructions. Results were measured in a Biotek Synergy HT microplate reader. AlamarBlue and CyQuant NF (Invitrogen) according to the manufacturer's instructions.

[7] = tested on: Aβ; assay: Aβ levels in N2a neuroblastoma cells transfected with human APPSwe/PSID (Aβ1-42 ELISA); type: cell-based, mouse; settings: 24 h incubation, various concentrations
Method: as §1, §4
To measure the effects of PKCε activation on Aβ production, we used mouse neuro2a (N2a) neuroblastoma cells transfected with human APPSwe/PSID, which produce large quantities of Aβ. Petanceska et al., J Neurochem. 1996; 74: 1878-84. […] With bryostatin, which activates PKC by binding to the diacylglycerol-binding site, the inhibition was biphasic, with concentrations of 20 nM or higher producing no net effect. This may be explained by the ability of this class of PKC activators to downregulate PKC when used at high concentrations.

[8] = tested on: rats; settings: cited from earlier work
[9] = tested on: Endothelin-converting enzyme (ECE); assay: ECE assay in SH-SY5Y neuroblastoma cells; type: cell-based, human; settings: bryostatin 0.27 nM, BR-101 1 μM, BR-111 1 μM; FIG. 10
Method: ECE assay. SH-S757 neuroblastoma cells were incubated with bryostatin (0.27 nM), BR-101 (PCP-LA) (1 μM), and BR-111 (DHA-CP6) (1 μM). Endothelin-converting enzyme (ECE) was measured fluorimetrically using the method of Johnson and Ahn, Anal. Biochem. 2000; 286: 112-118. A sample of cell homogenate (20 μl) was incubated in 50 mM MES-KOH, pH 6.0, 0.01% C12E10 (polyoxyethylene-10-tauryl ether), and 15 μM McaBK2. (7-Methoxycournarin-4-acetyl [Ala7-(2,4-Dinitrophenyl)Lys9]-bradykinin trifluoroacetate salt) (Sigma-Aldrich). After 60 min at 37° C., the reaction was quenched by adding trifluoroacetic acid to 0.5%. The sample was diluted to 1.4 ml with water and the fluorescence was measured at ex=334 nm, em=398 nm.

[10] = tested on: TACE; assay: TACE assay in rat primary neurons; type: cell-based; settings: primary neurons from rat hippocampus; FIGS. 9b, c
Method: as §3

Compound: CCCCCCCCCCCCCC(=O)O[C@@H]1[C@@H](C)[C@@]2(O)[C@@H](C=C(CO)C[C@]3(O)C(=O)C(C)=C[C@@H]23)[C@@H]2C(C)(C)[C@]12OC(C)=O [phorbol 12-myristate 13-acetate]
- PKC activity (downregulation) at 8 h ([1]; data not shown): strongly downregulated

Compound: CCCCCC1OC1C/C=C\CCCCCCCC(=O)OC (stereo in doubt) [BR-117, vernolic acid methyl ester]
- effect on PKC ([3]; FIG. 4): little or no effect

- effect on PKC ([3]; FIG. 4): little or no effect
Compound: CCCCCC1CC1CC1CC1CCCCCCCCO (stereo not drawn) [BR-105, linoleic alcohol dicyclopropane]

Compound: CCC1CC1CC1CC1CC1CC1CCCCCCCCO (stereo not drawn) [BR-104, linolenic alcohol tricyclopropane]
- effect on PKC ([3]; FIG. 4): little or no effect

- concentration needed to activate PKC, times lower than for BR-101 (DCP-LA) [3]: approx. 100 times
Compound: CCCCCC1CC1CC1CC1CC1CC1CC1CC1CCCC(=O)OC (stereo not drawn) [BR-115]
- activation of purified PKCε [3]: activated purified PKCε to a similar extent

- effect on PKC ([3]; FIG. 4): little or no effect
Compound: epoxystearic acid [BR-116]

- effect on PKCε ([3]; at concentrations above 1 μM, FIG. 4): inhibited
Compound: CCCCC[C@H]1O[C@H]1CC1CC1CCCCCCCC(=O)OC (stereo partly drawn) [BR-109, vernolic acid methyl ester cyclopropane]

Compound: CCC/C=C/C=C/C(=O)O[C@H]1/C(=C/C(=O)OC)C[C@H]2C[C@H]([C@@H](C)O)OC(=O)C[C@H](O)C[C@@H]3C[C@H](OC(C)=O)C(C)(C)[C@](O)(C[C@@H]4C/C(=C/C(=O)OC)C[C@H](/C=C/C(C)(C)[C@]1(O)O2)O4)O3 [bryostatin]
- increase in initial rate of a-secretase activity ([4]; 10 pM): 16 fold
- increase in initial rate of a-secretase activity ([4]; 100 pM): 132 fold
- downregulation of PKC following activation ([1]; 0.04 nM and 0.2 nM): 20%
- time by which PKC downregulation returned to baseline ([1]; 0.04 nM and 0.2 nM): ≤ 24 h
- activation of PKC ([1]; 0.04 nM and 0.2 nM, data not shown): 2 fold
- PKC activity (downregulation) at 8 h ([1]; data not shown): at or near the baseline
- TACE activity [5]: small increases
- effect on cell survival [6]: no effect
- levels of intracellular Aβ ([7]; FIG. 7a): markedly reduced
- levels of secreted Aβ ([7]; FIG. 7b): markedly reduced
- rate of learning [8]: dramatically increase the rate of learning
- ECE activity [9]: sustained increase
- TACE activity [10]: small increases

- concentration needed to activate PKC, times lower than for BR-101 (DCP-LA) [3]: approx. 100 times
Compound: CCC1CC1CC1CC1CC1CC1CC1CC1CC1CC1CCCC(=O)OC (stereo not drawn) [BR-114]
- activation of purified PKCε [3]: activated purified PKCε to a similar extent
